The text below walks through data of patent US20060229316A1, “Novel antiinfective compounds, process for their preparation and pharmaceutical compositions containing them” (priority 2002, published 2006).

In data set [1] the test system is Staphylococus aureus ATCC 33591. Nature of the data set: MIC by microbroth dilution, SA. Conditions: for MIC: Staphylococcus aureus. It is filed as cell-based, Staphylococcus aureus. An excerpt: (§1) The pharmaceutically acceptable compounds of the present invention are useful antibacterial agents having a good spectrum of activity in vitro and against standard Gram-positive organisms, which are used to screen for activity against pathogenic bacteria. […] The antibacterial spectrum and potency of a particular compound may be determined in a standard test system. The activity is described in terms of the minimum inhibitory concentration (MIC) determined by microbroth dilution technique as per NCCLS standards.
(§2) The minimum inhibitory concentrations (MIC's) of the compounds for the microorganisms listed in Table A were determined by preparing working solution for each compound of concentration of 128 μg/ml after dissolving it in DMSO. Two-fold serial dilution of the above solution was prepared in duplicates, using Mueller Hinton Broth, in 96 well Tissue culture plate with cover flat bottom wells to give a final volume of […] and concentration of compound ranging from 64 μg/ml-0.12 μg/ml. 30 μg/ml of Standard suspension of each organism which was prepared with turbidity equivalent to the 1:10 diluted 0.5 McFarland standard with density 10^7 CFU/ml, was added to each well to get approximately a density of 10^5 CFU/ml. These 96-well Tissue culture plate containing the test samples and positive and negative controls, were incubated at 37° C. for 16-18 hrs. The wells were visually inspected for growth and were also read at 630 nm by Automated Microplate Reader [(EL800) Trinity biotech.] and the MIC's were recorded as the lowest concentration of drug which inhibits the growth of bacteria.
(§3) The compounds of the present invention have useful activity against a variety of organisms. The in vitro activity of compounds of the present invention can be assessed by standard testing procedures such as the determination of minimum inhibitory concentration (MIC) by standard “Microdilution method” as described elsewhere in the specification. The pharmacokinetic profiling of the compounds were also done according to the protocol described in this specification. The activities of representative compounds of the present invention are given below in the following table.
SA: Staphylococus aureus ATCC 33591

Data set [2] has as its system Staphylococcus epidermidis ATCC 12228. Nature of the data set: MIC by microbroth dilution, SE. It is filed as cell-based.
Description: as §1, §2, §3
SE: Staphylococcus epidermidis ATCC 12228

For data set [3], the system named is Enterococcus faecalis ATCC 29212. Nature of the data set: MIC by microbroth dilution, EF. In kind it is cell-based.
Description: as §1, §2, §3
EF: Enterococcus faecalis ATCC 29212

Data set [4] deals with Methicillin resistant Staphylococus aureus 653SP. Nature of the data set: MIC by microbroth dilution, first column headed SA (guide: MRSA). Conditions: for MIC: Staphylococcus aureus, read-out: MIC (μg/ml) in vitro activity in gram positive organisms, SA. It is filed as cell-based, Staphylococcus aureus.
Description: as §1, §2, §3
MRSA: Methicillin resistant Staphylococus aureus 653SP

Where [5] appears, read: ATCC33591, Staphylococus aureus ATCC 33591, Mueller Hinton Broth, 37° C., 16-18 hrs, read-out: MIC (μg/ml) in vitro activity in gram positive organisms, SA.
The mark [6] stands for this setting: ATCC12228, Staphylococcus epidermidis ATCC 12228, Mueller Hinton Broth, 37° C., 16-18 hrs, read-out: MIC (μg/ml) in vitro activity in gram positive organisms, SE.
Where [7] appears, read: ATCC29212, Enterococcus faecalis ATCC 29212, Mueller Hinton Broth, 37° C., 16-18 hrs, read-out: MIC (μg/ml) in vitro activity in gram positive organisms, EF.
Setting [8] is: SA, Mueller Hinton Broth, 37° C., 16-18 hrs.
Setting [9] is: Staphylococus aureus ATCC 33591, Mueller Hinton Broth, 37° C., 16-18 hrs.
The mark [10] stands for this setting: Enterococcus faecalis ATCC 29212, Mueller Hinton Broth, 37° C., 16-18 hrs.
[11] abbreviates: ATCC33591, read-out: MIC (μg/ml) in vitro activity in gram positive organisms, SA.
Setting [12] is: Staphylococcus epidermidis, ATCC12228, read-out: MIC (μg/ml) in vitro activity in gram positive organisms, SE.
Setting [13] is: Enterococcus faecalis, ATCC29212, read-out: MIC (μg/ml) in vitro activity in gram positive organisms, EF.

Converted amounts (≈) assume the structure as drawn. Where two headings read alike, the source gives them in different places.

As to `CC(=S)NC[C@H]1CN(c2ccc(N3CCN(C(=O)C=Cc4ccco4)CC3)c(F)c2)C(=O)O1` [Compound 66, (S)-N-[3-(3-Fluoro-4-{4-[3-(furan-2-yl)-acryloyl]-piperazin-1-yl]-phenyl)-2-oxo-oxazolidin-5-ylmethyl]thioacetamide], the MIC was determined as 0.5 µg/mL (≈ 1.06 µM) in data set [1] (setting [5]), 0.5 µg/mL (≈ 1.06 µM) in data set [2] (setting [6]), 0.5 µg/mL (≈ 1.06 µM) in data set [3] (setting [7]) and 1 µg/mL (≈ 2.12 µM) in data set [4] (setting [8]).
As for `CC(=O)NC[C@H]1CN(c2ccc(N3CCOCC3)c(F)c2)C(=O)O1` [Linezolid, reference compound], the MIC in data set [1] (setting [5]) is 4 µg/mL (≈ 11.9 µM); in data set [2] (setting [6]) it was 4 µg/mL (≈ 11.9 µM); in data set [3] (setting [7]), 4 µg/mL (≈ 11.9 µM); in data set [4] (setting [8]), 2 µg/mL (≈ 5.93 µM).
In the case of `NC(=S)NC[C@H]1CN(c2ccc(N3CCN(C(=O)/C=C/c4cccs4)CC3)c(F)c2)C(=O)O1` [Compound 123, (3/-N-[3-(3-Fluoro-4-{4-(thiophen-2-yl)-acryloyl]-piperazineyl]-phenyl)-2-oxo-oxazolidin-5-yl-methyl]thiourea], the melting point is 154 to 157 °C. Also, the MIC in data set [1] (setting [5]) came out at 1 µg/mL (≈ 2.04 µM). The MIC in data set [2] (setting [6]) came out at 0.5 µg/mL (≈ 1.02 µM). Also, the MIC in data set [3] (setting [7]) was found to be 0.25 µg/mL (≈ 0.511 µM). Moreover, the MIC in data set [4] (setting [8]) is 1 µg/mL (≈ 2.04 µM).
On to `NC(=S)NC[C@H]1CN(c2ccc(N3CCN(C(=O)C=Cc4ccco4)CC3)c(F)c2)C(=O)O1` [Compound 127, (S)-N-[3-(3-Fluoro-4-{4-[3-(furan-2-yl)-acryloyl]-piperazin-1-yl]-phenyl)-2-oxo-oxazolidin-5-ylmethyl]thiourea], for which the MIC in data set [1] (setting [5]) worked out at 2 µg/mL (≈ 4.22 µM); in data set [2] (setting [6]), 0.5 µg/mL (≈ 1.06 µM); in data set [3] (setting [7]), 1 µg/mL (≈ 2.11 µM); in data set [4] (setting [8]), 2 µg/mL (≈ 4.22 µM).
For `CC(=O)NC[C@H]1CN(c2ccc(N3CCN(C/C=C/c4ccccc4)CC3)c(F)c2)C(=O)O1` (stereo in doubt), the melting point was in the range of 134 to 136 °C.
Turning to “(S)-N-[3-{4-(4-(3-Benzo[1,3]-dioxol-5-yl-acryloyl)-piperazin-1-yl}-3-fluorophenyl]-2-oxo-oxazolidin-5-yl methyl thiourea [Compound 125]”, the “MIC (μg/ml) in vitro activity in gram positive organisms, SA” value in data set [1] (setting [9]) turned out to be 4 µg/mL; in data set [4] (setting [8]), 1 µg/mL. For the same compound, the “MIC (μg/ml) in vitro activity in gram positive organisms, EF” value in data set [3] (setting [10]) worked out at 0.5 µg/mL.
For `CC(=O)NC[C@H]1CN(c2ccc(N3CCN(C(=O)CO)CC3)c(F)c2)C(=O)O1` [Eperzolid, reference compound], in that order: 4 µg/mL (≈ 10.1 µM), 2 µg/mL (≈ 5.07 µM) and 2 µg/mL (≈ 5.07 µM).
For `CC(=O)NC[C@H]1CN(c2ccc(N3CCN(C(=O)C=Cc4ccc(O)cc4)CC3)c(F)c2)C(=O)O1` [Compound 05, (S)-N-[3-(3-Fluoro-4-{4-[3-(4-hydroxyphenyl)-acryloyl]-piperazin-1-yl]-phenyl)-2-oxo-oxazolidin-5-ylmethyl]acetamide], the MIC in data set [1] (setting [11]) was 2 µg/mL (≈ 4.14 µM); in data set [2] (setting [12]), 0.5 µg/mL (≈ 1.04 µM); in data set [3] (setting [13]), 0.5 µg/mL (≈ 1.04 µM); in data set [4] it was 1 µg/mL (≈ 2.07 µM).
On to `CC(=S)NC[C@H]1CN(c2ccc(N3CCN(C(=O)C=Cc4cccs4)CC3)c(F)c2)C(=O)O1` [Compound 70, (S)-N-[3-(3-Fluoro-4-{4-[3-(thiophen-2-yl)-acryloyl]-piperazinyl]-phenyl)-2-oxo-oxazolidin-5-ylmethyl]thioacetamide], for which the MIC came out at 0.5 µg/mL (≈ 1.02 µM) in data set [1] (setting [5]), 2 µg/mL (≈ 4.09 µM) in data set [2] (setting [6]), 0.5 µg/mL (≈ 1.02 µM) in data set [3] (setting [7]) and 1 µg/mL (≈ 2.05 µM) in data set [4] (setting [8]).
With `NC(=S)NC[C@H]1CN(c2ccc(N3CCN(C(=O)C=Cc4c[nH]c5ccccc45)CC3)c(F)c2)C(=O)O1` [Compound 126, (S)-N-[3-(3-Fluoro-4-{4-[3-(1H-indol-3-yl)-acryloyl]-piperazin-1-yl]-phenyl)-2-oxo-oxazolidin-5-ylmethyl]thiourea], the MIC was found to be 1 µg/mL (≈ 1.91 µM) in data set [1] (setting [5]), 0.5 µg/mL (≈ 0.957 µM) in data set [2] (setting [6]), 1 µg/mL (≈ 1.91 µM) in data set [3] (setting [7]) and 1 µg/mL (≈ 1.91 µM) in data set [4] (setting [8]).
“(S)-N-[3-(3-Fluoro-4-{4-[3-(4-hydroxyphenyl)-acryloyl]-piperazin-1-yl]-phenyl)-2-oxo-oxazolidin-5-yl methyl thiourea [Compound 124]”: the “MIC (μg/ml) in vitro activity in gram positive organisms, SA” value in data set [1] (setting [9]) and in data set [4] (setting [8]) was 1 µg/mL throughout. Moreover, the “MIC (μg/ml) in vitro activity in gram positive organisms, EF” value in data set [3] (setting [10]) was 1 µg/mL.
As to `CC(=O)NC[C@H]1CN(c2ccc(N3CCN(C(=O)/C=C/c4cccs4)CC3)c(F)c2)C(=O)O1` [Compound 01], the melting point lay in the range of 223 to 225 °C. The MIC in data set [2] (setting [6]) turned out to be 1 µg/mL (≈ 2.12 µM). In data set [3] (setting [7]), the MIC was determined as 1 µg/mL (≈ 2.12 µM). Moreover, in data set [4] (setting [8]), the MIC was 0.5 µg/mL (≈ 1.06 µM).
For `CC(=S)NC[C@H]1CN(c2ccc(N3CCN(C(=O)C=Cc4ccc(O)cc4)CC3)c(F)c2)C(=O)O1` [Compound 64, (S)-N-[3-(3-Fluoro-4-{4-[3-(4-hydroxyphenyl)-acryloyl]-piperazin-1-yl]-phenyl)-2-oxo-oxazolidin-5-ylmethyl]thioacetamide], the MIC was determined as 0.25 µg/mL (≈ 0.501 µM) in data set [1] (setting [11]), 0.25 µg/mL (≈ 0.501 µM) in data set [2] (setting [12]), 0.25 µg/mL (≈ 0.501 µM) in data set [3] (setting [13]) and 0.5 µg/mL (≈ 1 µM) in data set [4].
